Where two headings read alike, the source gives them in different places.
What was measured:
[1] = system: TNFα; assay: Cot Monocyte TNFα Cell Based Assay
[2] = target: Human Cot (Homo sapiens (Human), UniProt P41279); assay: High Throughput Cot Biochemical Assay; settings: Cot HTRF (TR-FRET KinEASE) biochemical assay, 400 μM ATP
[3] = Homo sapiens, Monocyte, read-out: EC50 TNF, LPS-stimulated human monocytes, TNFα TR-FRET
[4] = read-out: EC50 TNF, LPS-stimulated human monocytes, TNFα TR-FRET

Chain of Human Cot (P41279 30-397): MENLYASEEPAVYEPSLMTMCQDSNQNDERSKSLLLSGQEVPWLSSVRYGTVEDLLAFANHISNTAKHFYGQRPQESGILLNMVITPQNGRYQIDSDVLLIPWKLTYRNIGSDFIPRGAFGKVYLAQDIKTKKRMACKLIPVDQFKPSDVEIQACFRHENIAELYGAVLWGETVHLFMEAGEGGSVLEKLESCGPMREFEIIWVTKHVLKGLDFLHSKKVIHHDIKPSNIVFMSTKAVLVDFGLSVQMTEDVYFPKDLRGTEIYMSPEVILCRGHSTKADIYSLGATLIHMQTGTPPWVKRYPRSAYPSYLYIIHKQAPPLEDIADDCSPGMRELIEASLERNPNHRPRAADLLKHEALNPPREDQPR

Structure (SMILES)	EC50 [1, 3] [nM]	IC50 ([2]; IC50 HTRF) [nM]	EC50 [1, 4] [nM]	IC50 ([2]; read-out: IC50 HTRF) [nM]
CC1(n2cc([C@@H](Nc3cc(Cl)c4ncc(C#N)c(NCC(C)(C)C(F)(F)F)c4c3)c3ccc(F)c4ncccc34)nn2)CC1 [Example 919, (S)-8-chloro-6-(((8-fluoroquinolin-5-yl)(1-(1-methylcyclopropyl)-1H-1,2,3-triazol-4-yl)methyl)amino)-4-((3,3,3-trifluoro-2,2-dimethylpropyl)amino)quinoline-3-carbonitrile]	49	2		
CC(C)(C)CNc1c(C#N)cnc2c(Cl)cc(N[C@H](c3cn(C45CC(C4)C5)nn3)c3ccc(F)c4ncccc34)cc12 [Example 920, (S)-6-(((1-(bicyclo[1.1.1]pentan-1-yl)-1H-1,2,3-triazol-4-yl)(8-fluoroquinolin-5-yl)methyl)amino)-8-chloro-4-(neopentylamino)quinoline-3-carbonitrile]	28	3		
CC(C)(C)CNc1c(C#N)cnc2c(Cl)cc(N[C@H](c3cn(C4(C(F)(F)F)CC4)nn3)c3ccc(Cl)c4ncccc34)cc12 [Example 921, (S)-8-chloro-6-(((8-chloroquinolin-5-yl)(1-(1-(trifluoromethyl)cyclopropyl)-1H-1,2,3-triazol-4-yl)methyl)amino)-4-(neopentylamino)quinoline-3-carbonitrile]	187	17		
COc1nccc2c([C@H](Nc3cc(Cl)c4ncc(C#N)c(NCC(C)(C)C)c4c3)c3nnn(C4(C(F)(F)F)CC4)c3F)cccc12 [Example 922, (S)-8-chloro-6-(((5-fluoro-1-(1-(trifluoromethyl)cyclopropyl)-1H-1,2,3-triazol-4-yl)(1-methoxylsoquinolin-5-yl)methyl)amino)-4-(neopentylamino)quinoline-3-carbonitrile]			225	11
COc1nccc2c([C@H](Nc3cc(Cl)c4ncc(C#N)c(NCC(C)(C)C)c4c3)c3nnn(C4(C(F)F)CC4)c3F)cccc12 [Example 923, (S)-8-chloro-6-(((1-(1-(difluoromethyl)cyclopropyl)-5-fluoro-1H-1,2,3-triazol-4-yl)(1-methoxylsoquinolin-5-yl)methyl)amino)-4-(neopentylamino)quinoline-3-carbonitrile]			258	16
COc1nccc2c([C@H](Nc3cc(Cl)c4ncc(C#N)c(NCC(C)(C)C(F)(F)F)c4c3)c3cn(C4(C)CC4)nn3)cccc12 [Example 927, (S)-8-chloro-6-(((1-methoxylsoquinolin-5-yl)(1-(1-methylcyclopropyl)-1H-1,2,3-triazol-4-yl)methyl)amino)-4-((3,3,3-trifluoro-2,2-dimethylpropyl)amino)quinoline-3-carbonitrile]			124	6
COc1nccc2c([C@H](Nc3cc(Cl)c4ncc(C#N)c(NCC(C)(C)C)c4c3)c3cn(C4(C(F)(F)F)CC4)nn3)cccc12 [Example 929, (S)-8-chloro-6-(((1-methoxylsoquinolin-5-yl)(1-(1-(trifluoromethyl)cyclopropyl)-1H-1,2,3-triazol-4-yl)methyl)amino)-4-(neopentylamino)quinoline-3-carbonitrile]			157	11
COc1ccc2c([C@H](Nc3cc(Cl)c4ncc(C#N)c(NCC(C)(C)C)c4c3)c3cn(C4(C(F)(F)F)CC4)nn3)cccc2n1 [Example 930, (S)-8-chloro-6-(((2-methoxyquinolin-5-yl)(1-(1-(trifluoromethyl)cyclopropyl)-1H-1,2,3-triazol-4-yl)methyl)amino)-4-(neopentylamino)quinoline-3-carbonitrile]	504	33		
COc1nccc2c([C@H](Nc3cc(Cl)c4ncc(C#N)c(NCC(C)(C)C)c4c3)c3cn(C(CF)CF)nn3)cccc12 [Example 933, (S)-8-chloro-6-(((1-(1,3-difluoropropan-2-yl)-1H-1,2,3-triazol-4-yl)(1-methoxylsoquinolin-5-yl)methyl)amino)-4-(neopentylamino)quinoline-3-carbonitrile]			247	29
COc1nccc2c([C@H](Nc3cc(Cl)c4ncc(C#N)c(NCC(C)(C)C(F)(F)F)c4c3)c3cn(C4(C(F)F)CC4)nn3)cccc12 [Example 934, (S)-8-chloro-6-(((1-(1-(difluoromethyl)cyclopropyl)-1H-1,2,3-triazol-4-yl)(1-methoxylsoquinolin-5-yl)methyl)amino)-4-((3,3,3-trifluoro-2,2-dimethylpropyl)amino)quinoline-3-carbonitrile]			81	7
CC(C)(C)CNc1c(C#N)cnc2c(Cl)cc(N[C@@H](c3ccc4nccn4c3)c3cn(C4(C(F)(F)F)CC4)nn3)cc12 [Example 935, (S)-8-chloro-6-((imidazo[1,2-a]pyridin-6-yl(1-(1-(trifluoromethyl)cyclopropyl)-1H-1,2,3-triazol-4-yl)methyl)amino)-4-(neopentylamino)quinoline-3-carbonitrile]	424	24		

Results, then the molecule that gave them:

EC50 [1, 3] [nM]	IC50 ([2]; IC50 HTRF) [nM]	EC50 [1, 4] [nM]	IC50 ([2]; read-out: IC50 HTRF) [nM]	Structure (SMILES)
287	18			Cn1cccc([C@H](Nc2cc(Cl)c3ncc(C#N)c(NCC(C)(C)C)c3c2)c2cn(C3(C(F)(F)F)CC3)nn2)c1=O [Example 936, (S)-8-chloro-6-(((1-methyl-2-oxo-1,2-dihydropyridin-3-yl)(1-(1-(trifluoromethyl)cyclopropyl)-1H-1,2,3-triazol-4-yl)methyl)amino)-4-(neopentylamino)quinoline-3-carbonitrile]
223	26			Cc1c([C@H](Nc2cc(Cl)c3ncc(C#N)c(NCC(C)(C)C)c3c2)c2cn(C3(C(F)(F)F)CC3)nn2)ccnc1Cl [Example 938, (S)-8-chloro-6-(((2-chloro-3-methylpyridin-4-yl)(1-(1-(trifluoromethyl)cyclopropyl)-1H-1,2,3-triazol-4-yl)methyl)amino)-4-(neopentylamino)quinoline-3-carbonitrile]
104	18			Cn1ccc2c([C@H](Nc3cc(Cl)c4ncc(C#N)c(NCC(C)(C)C)c4c3)c3cn(C45CCC(CC4)CC5)nn3)cccc2c1=O [Example 939, (S)-6-(((1-(bicyclo[2.2.2]octan-1-yl)-1H-1,2,3-triazol-4-yl)(2-methyl-1-oxo-1,2-dihydroisoquinolin-5-yl)methyl)amino)-8-chloro-4-(neopentylamino)quinoline-3-carbonitrile]
86	7			CC(C)(CNc1c(C#N)cnc2c(Cl)cc(N[C@H](c3cn(C4(C(F)F)CC4)nn3)c3cccc4ncccc34)cc12)C(F)(F)F [Example 940, (S)-8-chloro-6-(((1-(1-(difluoromethyl)cyclopropyl)-1H-1,2,3-triazol-4-yl)(quinolin-5-yl)methyl)amino)-4-((3,3,3-trifluoro-2,2-dimethylpropyl)amino)quinoline-3-carbonitrile]
804	64			COc1cc([C@H](Nc2cc(Cl)c3ncc(C#N)c(NCC(C)(C)C)c3c2)c2cn(C3(C(F)(F)F)CC3)nn2)ccn1 [Example 941, (S)-8-chloro-6-(((2-methoxypyridin-4-yl)(1-(1-(trifluoromethyl)cyclopropyl)-1H-1,2,3-triazol-4-yl)methyl)amino)-4-(neopentylamino)quinoline-3-carbonitrile]

— patent US11066414B2, “Cot modulators and methods of use thereof” (Gilead Sciences, Inc., priority 2015, dated 2021)
